Source: a melting point compilation (Tetko et al.; mined from patent text by program, amines drawn as free bases though some values may be those of a salt)

Point of comparison: `O=C1C(Cl)=C(Cl)C(=O)c2cc(Cl)ccc21`, melting point 148 °C. Against it:
- CCc1cc(-c2ccc(Cl)cc2)nc2c(I)cnn12 — higher, 150 to 152 °C
- Clc1ccc(C2c3ccc(Cl)cc3-c3ncncc32)cc1 (stereo unspecified) — higher, 158 to 163 °C
- NC(=S)c1ccc2c(c1)Nc1ccccc1S2 — higher, 208 to 209 °C
- Cc1cc(Oc2ncc(C(F)(F)F)cc2Cl)nn1C(=O)N(C(C)C)C(C)C — lower, 58 to 60 °C
- CC(=O)c1ccccc1N(C)S(C)(=O)=O — lower, 98 to 99 °C
- Cc1cc(-n2ccnc2)c2cccc(OCc3c(Cl)ccc(S(=O)(=O)N4CCC[C@H]4C(=O)NCCCCCN(C)C)c3Cl)c2n1 — lower, 85 °C
- O=[N+]([O-])c1cnn2c1-c1ccccc1NC2c1ccccc1O (stereo unspecified) — higher, 235 to 237 °C
- N#Cc1sc2cc([N+](=O)[O-])ccc2c1Cl — higher, 204 to 205 °C
- CCC1(Cl)C(=O)c2c(cc(OCC(=O)O)c(Cl)c2Cl)C1c1ccccc1 (stereo unspecified) — higher, 190 to 192 °C
- CC(C#Cc1ccc(C=Cc2cccnc2)o1)N(O)C(N)=O (stereo unspecified) — higher, 166 °C
- Cc1cc(SCc2cccc(C(F)(F)F)c2)c(C)cc1N — lower, 58 to 60 °C
- CCCOc1ccc2c(c1)C(c1ccc(OC)cc1OCC(=O)O)C(CN)C2c1ccc2c(c1)OCO2 (stereo unspecified) — higher, 237 to 242 °C
- CO/C=C(/C(=O)OC)c1ccccc1Oc1cccc(N)c1 — lower, 83 to 85 °C
- CC(C)CC(NC(=O)C(C)NC(=O)C(CC(=O)N1CCOCC1)Cc1cccc2ccccc12)C(O)C(=O)OC(C)C (mixture of isomers) — higher, 178 to 183 °C
- N#CCCCc1ncc(Br)cc1[N+](=O)[O-] — lower, 73 to 76 °C
- Cc1cc(-n2ccnc2)c2cccc(OCc3c(Cl)ccc(S(=O)(=O)N4CCC[C@H]4C(=O)NCCc4ccncc4)c3Cl)c2n1 — lower, 120 °C
- CCN(CCCCc1coc2c(OC)cccc12)C1COc2c(F)ccc(C(N)=O)c2C1 (stereo unspecified) — lower, 112 to 118 °C
- O=C(O)CCC(CSc1ccc2ccccc2c1)C(=O)O (stereo unspecified) — lower, 140 to 142 °C
- CCCc1nn(C)c2c(=O)n(CCOc3cccc(OC(C)(C)C(=O)O)c3)c(C)nc12 — lower, 140 to 142 °C
- FC(F)(F)c1cccc(CCc2nnc(-c3ccc4nccn4c3)o2)c1 — higher, 152 to 153 °C
- COC(=O)NN=Cc1ccccc1N — higher, 149 to 150 °C
- O=C(NCCc1cccc2ccc(OC3CCCCC3)cc12)C1CC1 — higher, 153 to 155 °C
- COC(=O)c1[nH]c2c(C)ccc(C)c2c1S(C)=O (stereo unspecified) — lower, 127 °C
- Cc1cccc(Br)c1-c1c(C)cccc1Br — lower, 90 to 92.3 °C
- N#Cc1ccc(N2CCc3nc4cc(Cl)ccc4c(Cl)c3C2)nc1 — higher, 171 to 173 °C
- Cc1nnc2ccc(-c3cccs3)nn12 — higher, 152 to 153 °C
- CC(=O)N[C@@H](CCC(N)=O)C(=O)NC1(C(=O)NCCCCNC(N)=NC#N)Cc2ccccc2C1 — lower, 122 to 133 °C
- O=C1NC(=O)C(Cc2ccc(OCCC3OCCO3)cc2)S1 (stereo unspecified) — lower, 102 to 104 °C
- CC1=C(C(=O)Nc2ccc(Cl)c(C(=O)OC(C)C)c2)SCCS1 — lower, 122 to 124 °C
- CC(C)N1CCC(C(C#N)(c2ccccc2)c2ccccc2)C1 (stereo unspecified) — lower, 73 to 74 °C
- c1ccc2c(c1)CC(CN1CCN(c3ccc4c(c3)OCC4)CC1)C2 — higher, 171 to 173 °C
- CC(C)CC(=O)Nc1cccc(-c2ccnc3c(-c4cccc(C#N)c4)cnn23)c1 — higher, 166 to 167 °C
- N#CC(C#N)=C1c2cc(N)c(Cl)cc2-c2cc(Cl)c(N)cc21 — higher, 336 to 338 °C
- COC(=O)C(C)(C)CCCCCOc1ccc(N2C(=O)c3ccccc3C2=O)cc1 — lower, 82 to 83 °C
- O=C(NCCO)/C(=C/c1ccc(OC(F)F)cc1)NC(=O)c1ccc(OCCC2CC2)cc1 — higher, 153 to 155 °C
- CCOC(=O)c1ccc(NC(=O)c2ccc3c(c2)OCCO3)cc1 — lower, 134 to 136 °C
- COc1cc2ncnc(N3CCC(C4(C)CO4)CC3)c2cc1OC (stereo unspecified) — lower, 125 to 128 °C
- CCOc1ccc(N)c(S)c1 — lower, 104 °C
- COc1ccc(NC(=O)CBr)c([N+](=O)[O-])c1 — lower, 94 to 98 °C
- Nc1nc2c(s1)CCN(CC=Cc1cccc(C(F)(F)F)c1)CC2 — lower, 102 to 105 °C
- Cc1nc2cc3c(cc2[nH]1)[nH]c(=O)n3C — higher, 300 °C
- Cc1c(C)c2ccc(OCCCN3CCC(=NO)CC3)cc2oc1=O — higher, 198 to 200 °C
- Cc1cc(Nc2cncc(NC3CCCCC3)n2)n[nH]1 — higher, 194 to 196 °C
- CCOC(=O)c1oc(C(C)(C)C)cc1N — lower, 44 to 45 °C
- COC(=O)c1cc(Cl)c(Oc2ccc(OC)c(C(=O)c3ccc(F)cc3)c2)c(Cl)c1 — lower, 112 to 115 °C
- CC(C)(NC(=O)c1cc2c(n(CC3CCCCC3)c1=O)CCCCCC2)C(=O)O[C@H]1CO[C@H](c2ccccc2)OC1 — higher, 166 to 168 °C
- CC(F)(F)c1cccc(C[C@@H](NC(=O)c2cccc3c2C=CCCC3)[C@@H](O)c2ccc(F)cc2)c1 (racemic) — higher, 170 to 171 °C
- Fc1c(F)c(F)c(-c2c3ccccc3c(-c3c(F)c(F)c(F)c(F)c3F)c3ccccc23)c(F)c1F — higher, 337 to 338 °C
- CN(C)C(=O)c1cccnc1S(=O)(=O)Cl — lower, 114 to 117 °C
- Cc1cc(N)ccc1NCCNC(N)=O — lower, 143 °C
